Measurements: patent publication US6558900B2, “Regulation of apoptosis and in vitro model for studies thereof” (Emory University, priority 1996, dated 2003)
Entries after “also recorded” stand apart in the source; their conditions may differ. Counter-ions that a name gives are not always drawn.

Key:
variety of cell types = conditions: cited from earlier work
hamster liver nuclei = assay: Reconstitution of DNA fragmentation and nuclear morphological change in HeLa S-100 immunodepleted of cytochrome c; format: biochemical; conditions: 1 μg added to immunodepleted HeLa S-100, 1 mM dATP
Description: (§1) Cytochrome c present in the HeLa cell S-100 was immunodepleted as described in the Example 10. In FIG. 7A, 10 μl aliquots of HeLa S-100 (50 μg) (lanes 1 and 2), or 10 μl aliquots of HeLa S-100 immunodepleted of cytochrome c (lanes 3 and 4), or 10 μl of HeLa S-100 immunodepleted of cytochrome c supplemented with 0.2 μg Apaf-2 purified through the Mono S column (H) (lanes 5 and 6), bovine heart cytochrome c (B) (lanes 7 and 8), or rat liver cytochrome c (R) (lanes 9 and 10), were incubated with aliquots of 3 μl in vitro translated, ^35S-labeled CPP32 in the absence (lanes 1, 3, 5, 7, 9) or presence (lanes 2, 4, 6, 8, 10) of 1 mM dATP at 30° C. for 1 hr in a final reaction volume of 20 μl of buffer A. Samples were subjected to SDS-PAGE and transferred to a nitrocellulose filter which were then exposed to film for 16 hr at room temperature. In FIG. 7B, HeLa S-100 (50 μg) immunodepleted of cytochrome c were reconstituted with the indicated amount of Apaf-2 (purified through Mono S column step) in a CPP32 cleavage reaction as described in FIG. 7A. The cleaved products (p20) were quantified in a Fuji-1000 phosphorimager machine and plotted in comparison with that generated by HeLa S-100. In FIG. 7C, aliquots of 50 μl of HeLa S-100 (250 μg) (lanes 1 and 2), or 50 μl of HeLa S-100 immunodepleted of cytochrome c (lanes 3 and 4), or 50 μl of HeLa S-100 immunodepleted of cytochrome c supplemented with 1 μg apaf-2 purified through the Mono S column (H) (lanes 5 and 6), bovine heart cytochrome c (B) (lanes 7 and 8), or rat liver cytochrome c (R) (lanes 9 and 10), were incubated with aliquots of 6 μl hamster liver nuclei in the absence (lanes 1, 3, 5, 7, 9) or presence (lanes 2, 4, 6, 8, 10) of 1 mM dATP at 37° C. for 2 hr in a final reaction volume of 60 μl. The DNA were isolated as described in the Examples, analyzed on 2% agarose gel electrophoresis, and the DNA was visualized by ethidium bromide staining. In FIG. 7D, DNA fragmentation assays were carried out as in FIG. 7C using HeLa S-100 immunodepleted of cytochrome c alone (a,b) or supplemented with Apaf-2 purified through Mono S column step (c,d) in the absence (a,c) or presence of 1 mM dATP (b,d). After 2 hr incubation at 37° C., an aliquot of each reaction (30 μl) was stained with 4′,6′-diamidino-2-phenylindole (DAPI), and observed under a fluorescence microscope with a UV-2A combination filter.
To rule out the possibility that the Apaf-2 activity is due to a minor contaminating protein that co-purified with cytochrome c, an immunodepletion experiment was carried out using a monoclonal antibody against rat cytochrome c. This monoclonal antibody cross-reacts with purified Apaf-2. […]

CPP32 [1] = assay: Reconstitution of dATP-dependent CPP32 activation in HeLa S-100 immunodepleted of cytochrome c; format: biochemical, human; conditions: 0.2 μg added to immunodepleted HeLa S-100, 1 mM dATP
Description: as §1
To rule out the possibility that the Apaf-2 activity is due to a minor contaminating protein that co-purified with cytochrome c, an immunodepletion experiment was carried out using a monoclonal antibody against rat cytochrome c. This monoclonal antibody cross-reacts with purified Apaf-2. As shown in FIGS. 7A-7D, HeLa cell S-100 depleted of cytochrome c using the monoclonal anti-cytochrome c antibody lost the dATP-dependent activation of CPP32 and the ability to induce DNA fragmentation in the added nuclei (FIGS. 7A and 7C, lanes 3 and 4). Adding back either the purified Apaf-2 from HeLa cells or the commercial cytochrome c from bovine heart or rat liver to the immunodepleted extracts restored the dATP-dependent activation of CPP32 and DNA fragmentation (FIGS. 7A and 7C, lanes 5-10). The reconstitution of cytochrome c dependent-activation of CPP32 was evident with the addition of 0.01 μg (33 nM) of purified cytochrome c to the cytochrome c-depleted extracts (FIG. 7B).
CPP32 was translated and purified as described above. Aliquot of 3 μl of the in vitro translated CPP32 was incubated with the indicated protein fraction, nucleotides, and 1 mM additional MgCl2 at 30° C. for 1 hour in a final volume of 20 μl of buffer A. At the end of the incubation, 7 μl of 4×SDS sample buffer was added to each reaction. After boiling for 3 min, each sample was subjected to a 15% SDS-polyacrylamide gel electrophoresis (SDS-PAGE). The gel was transferred to a nitrocellulose filter which was subsequently exposed to a Kodak X-OMAT AR X-ray film (Eastman Kodak, Rochester, N.Y.) for 16 hr at room temperature. […]

CPP32 [2] = assay: Apaf-2 activity: recombining with phosphocellulose flow through fraction (Apaf-1) and 35S-labeled CPP32; format: biochemical, human; conditions: 0.2 μg protein with phosphocellulose flowthrough fraction, 1 mM dATP
Description: FIG. 3 illustrates fractionation and reconstitution of dATP-dependent activation of CPP32 by phosphocellulose chromatography. HeLa cell S-100 was subjected to phosphocellulose chromatography and the column flow through and bound material were collected as described in the Examples. Aliquots (10 μl) of HeLa S-100 (50 μg) (lanes 1 and 2), phosphocellulose flow through fraction (PC-FT) (lanes 3 and 4), phosphocellulose bound fraction (PC-B) (lanes 5 and 6), and the mixture of phosphocellulose flow through and bound material (lanes 7 and 8) were incubated with aliquots of 3 μl in vitro translated, ^35S-labeled CPP32 at 30° C. for 1 hr in the absence (lanes 1,3,5,7) or presence (lanes 2,4,6,8) of 1 mM dATP. The samples were subjected to SDS-PAGE, transferred to a nitrocellulose filter, and the filter was exposed to film for 16 hours at room temperature.
The Apaf-2 activity that bound to the phosphocellulose column was purified through the Mono S column as described in Example 7. […] In FIG. 4B, aliquots (30 μl) of the Mono-S fractions were subjected to 15% SDS-PAGE and the proteins were visualized by silver staining.
Aliquots of 0.2 μg of Apaf-2 purified through the Mono S column (lanes 1, 2), cytochrome c from bovine heart (lanes 3, 4), and rat liver (lanes 5, 6) were incubated with aliquots of 10 μl phosphocellulose flowthrough fraction and 3 μl in vitro translated, 35S-labeled CPP32 at 30° C. for 1 hr in a final volume of 20 μl buffer A in the absence (lanes 1,3,5) or presence of (lanes 2, 4, 6) 1 mM dATP. Samples were subjected to SDS-PAGE and transferred to a nitrocellulose filter which was then exposed to a film for 16 hr at room temperature.
To isolate the protein(s) required for the activation of CPP32, HeLa S-100 was loaded onto a phosphocellulose column, and the flow-through and bound fractions were collected. […] When the flowthrough and bound fractions were mixed, CPP32-activating activity was restored (lanes 7-8). […] The factor(s) that flow through the phosphocellulose column are designated apoptotic protease activating factor-1 (Apaf-1) and the factor that bound to the column is designated apoptotic protease activating factor-2 (Apaf-2). It is understood that “Apaf-1” may represent more than one protein or it may represent a combination of protein(s) and other factors.
Apaf-2 activity was assayed by recombining with Apaf-1 after purification by the following steps. First, the Apaf-2 fraction was subjected to 50% ammonium sulfate precipitation. All of the activity remained in the supernatant while most of the protein precipitated (Table I). The supernatant was loaded onto a phenyl-sepharose (hydrophobic interaction) column and the activity was eluted with 1 M ammonium sulfate. The eluate was passed through a gel filtration column; active fractions were subjected to sequential Mono Q (anion exchange) and Mono S (cation exchange) chromatography. The Apaf-2 activity flowed through the Mono Q column, and the flow through was directly loaded onto the Mono S column. Bound Apaf-2 activity was then eluted with a 100-300 mM NaCl linear salt gradient. The fractions from the Mono S column were collected and assayed. […] The active fractions were analyzed by SDS-PAGE (FIG. 4B). A protein of apparent molecular mass of 15 kDa was co-eluted with the activity. No other proteins were detected by silver staining in the active Apaf-2 fractions.
CPP32 was translated and purified as described above. […]

Row | Molecule | initiation of apoptosis (variety of cell types) | restoration of DNA fragmentation (hamster liver nuclei) | restoration of dATP-dependent activation of CPP32 (CPP32 [1]) | Apaf-2 activity (dATP-dependent activation of CPP32) (CPP32 [2])
1 | COc1cc([C@@H]2c3cc4c(cc3[C@@H](O[C@@H]3O[C@@H]5CO[C@@H](C)O[C@H]5[C@H](O)[C@H]3O)[C@H]3COC(=O)[C@H]23)OCO4)cc(OC)c1O [etoposide] | act to initiate apoptosis | – | – | –
2 | rat liver cytochrome c: commercial cytochrome c from rat liver (Sigma) | – | restored | restored | have Apaf-2 activity; also recorded: initiated dATP-dependent activation of CPP32 as efficiently as Apaf-2
3 | O=C1c2c(O)ccc(O)c2C(=O)c2c(NCCNCCO)ccc(NCCNCCO)c21 [mitoxantrone HCl] | act to initiate apoptosis | – | – | –
4 | bovine heart cytochrome c: commercial cytochrome c from bovine heart (Sigma) | – | restored | restored | have Apaf-2 activity; also recorded: initiated dATP-dependent activation of CPP32 as efficiently as Apaf-2
